Source: ChEMBL document CHEMBL3860056, “In vitro and in vivo inhibitory activity of 6-amino-2,4,5-trimethylpyridin-3-ols against inflammatory bowel disease” (Bioorg Med Chem Lett, 2016)

Experiments:
[1] = (§1) Antiinflammatory activity in human HT-29 cells assessed as inhibition of TNF-alpha induced BCECF-AM labeled human U937 cell adhesion at 1 uM preincubated for 1 hr followed by stimulation with TNF-alpha for 3 hrs followed by further co-incubation with BCECF-AM labeled human U937 cells for 1 hr by fluorescent/light microscopic analysis; format: functional
Rattus norvegicus [2] = assay: Antiinflammatory activity in TNBS-induced Sprague-Dawley rat colitis model assessed as body weight recovery at 300 mg/kg/day, po administered for 5 days post 1 day of TNBS-challenge measured daily during compound dosing relative to control; format: functional
Rattus norvegicus [3] = assay: Antiinflammatory activity in TNBS-induced Sprague-Dawley rat colitis model assessed as inhibition of myeloperoxidase level in colon at 300 mg/kg/day, po administered for 5 days post 1 day of TNBS-challenge by colorimetric method relative to control; format: functional
Rattus norvegicus [4] = assay: Antiinflammatory activity in TNBS-induced Sprague-Dawley rat colitis model assessed as colon weight recovery at 300 mg/kg/day, po administered for 5 days post 1 day of TNBS-challenge relative to control; format: functional
Rattus norvegicus [5] = assay: Antiinflammatory activity in TNBS-induced Sprague-Dawley rat colitis model assessed as inhibition of myeloperoxidase level in colon at 1 mg/kg/day, po administered for 5 days post 1 day of TNBS-challenge by colorimetric method relative to control; format: functional
Rattus norvegicus [6] = assay: Antiinflammatory activity in TNBS-induced Sprague-Dawley rat colitis model assessed as body weight recovery at 0.1 mg/kg/day, po administered for 5 days post 1 day of TNBS-challenge measured daily during compound dosing relative to control; format: functional
Rattus norvegicus [7] = assay: Antiinflammatory activity in po dosed TNBS-induced Sprague-Dawley rat colitis model assessed as body weight recovery compound administered for 5 days post 1 day of TNBS-challenge measured daily during compound dosing; format: functional, organism-based
Rattus norvegicus [8] = assay: Antiinflammatory activity in TNBS-induced Sprague-Dawley rat colitis model assessed as colon weight recovery at 0.1 mg/kg/day, po administered for 5 days post 1 day of TNBS-challenge relative to control; format: functional
Rattus norvegicus [9] = assay: Antiinflammatory activity in TNBS-induced Sprague-Dawley rat colitis model assessed as colon weight recovery at 10 mg/kg/day, po administered for 5 days post 1 day of TNBS-challenge relative to control; format: functional
Rattus norvegicus [10] = organism: Rattus norvegicus; assay: Potency index, ratio of compound efficacy to sulfasalazine efficacy in TNBS-induced Sprague-Dawley rat colitis model assessed as body weight recovery; format: functional
Rattus norvegicus [11] = assay: Antiinflammatory activity in TNBS-induced Sprague-Dawley rat colitis model assessed as inhibition of myeloperoxidase level in colon at 10 mg/kg/day, po administered for 5 days post 1 day of TNBS-challenge by colorimetric method relative to control; format: functional
Rattus norvegicus [12] = assay: Antiinflammatory activity in TNBS-induced Sprague-Dawley rat colitis model assessed as body weight recovery at 1 mg/kg/day, po administered for 5 days post 1 day of TNBS-challenge measured daily during compound dosing relative to control; format: functional
Rattus norvegicus [13] = organism: Rattus norvegicus; assay: Potency index, ratio of compound efficacy to sulfasalazine efficacy in TNBS-induced Sprague-Dawley rat colitis model assessed as colon weight recovery; format: functional
[14] = as §1, with “adhesion” for “adhesion at 1 uM”; format: functional, cell-based
Rattus norvegicus [15] = assay: Antiinflammatory activity in po dosed TNBS-induced Sprague-Dawley rat colitis model assessed as recovery of increase in colon wet weight administered for 5 days post 1 day of TNBS-challenge; format: functional, organism-based
Rattus norvegicus [16] = assay: Antiinflammatory activity in po dosed TNBS-induced Sprague-Dawley rat colitis model assessed as reduction in colon edema and adhesion administered for 5 days post 1 day of TNBS-challenge by microscopic analysis; format: functional, organism-based
Rattus norvegicus [17] = assay: Antiinflammatory activity in TNBS-induced Sprague-Dawley rat colitis model assessed as colon weight recovery at 1 mg/kg/day, po administered for 5 days post 1 day of TNBS-challenge relative to control; format: functional
Rattus norvegicus [18] = assay: Antiinflammatory activity in TNBS-induced Sprague-Dawley rat colitis model assessed as body weight recovery at 10 mg/kg/day, po administered for 5 days post 1 day of TNBS-challenge measured daily during compound dosing relative to control; format: functional
Rattus norvegicus [19] = assay: Antiinflammatory activity in TNBS-induced Sprague-Dawley rat colitis model assessed as inhibition of myeloperoxidase level in colon at 0.1 mg/kg/day, po administered for 5 days post 1 day of TNBS-challenge by colorimetric method relative to control; format: functional
Rattus norvegicus [20] = organism: Rattus norvegicus; assay: Potency index, ratio of compound efficacy to sulfasalazine efficacy in TNBS-induced Sprague-Dawley rat colitis model assessed as inhibition of MPO level in colon; format: functional
[21] = as §1, with “20 mM” for “1 uM”; format: functional

| SMILES | inhibition at 1 µM [1] [%] | also measured |
| --- | --- | --- |
| Cc1nc(Nc2cccc3ccccc23)c(C)c(C)c1O | 52.4 | – |
| Cc1nc(N(C)c2ccc(F)cc2)c(C)c(C)c1O | 77.2 | – |
| Cc1nc(Nc2cccc(OC(C)C)c2)c(C)c(C)c1O | 24.9 | – |
| Cc1ccc(Nc2nc(C)c(O)c(C)c2C)cc1 | 84.4 | – |
| O=C(O)c1cc(/N=N/c2ccc(S(=O)(=O)Nc3ccccn3)cc2)ccc1O [SULFASALAZINE] | – | Activity (Rattus norvegicus [2]): 55.6%; inhibition in vivo at 300 mg/kg/day (Rattus norvegicus [3]): 58.6%; Activity (Rattus norvegicus [4]): 67.1% |
| Cc1nc(Nc2ccccc2C(C)C)c(C)c(C)c1O | 37.8 | – |
| CCCCCCCCCCc1ccc(Nc2nc(C)c(O)c(C)c2C)cc1 | 76.6 | – |
| Cc1nc(Nc2ccc(Br)cc2)c(C)c(C)c1O | 47.2 | – |
| Cc1nc(N(C)c2ccc(Cl)cc2)c(C)c(C)c1O | 65.2 | – |
| Cc1nc(NC2CCCCC2)c(C)c(C)c1O | 36 | – |
| Cc1nc(NCc2ccccc2)c(C)c(C)c1O | 35.7 | – |
| Cc1nc(NCc2ccc(-c3ccccc3)cc2)c(C)c(C)c1O | 1.3 | – |
| Cc1nc(N(C)c2ccccc2)c(C)c(C)c1O | 58.1 | – |
| Cc1nc(Nc2cccc(F)c2)c(C)c(C)c1O | 16.3 | – |
| CCCCCCNc1nc(C)c(O)c(C)c1C | 28.4 | – |
| Cc1nc(NCc2ccc(C(C)(C)C)cc2)c(C)c(C)c1O | 49.2 | – |
| Cc1nc(NCCCO)c(C)c(C)c1O | 19 | – |
| Cc1nc(Nc2ccc(C(C)(C)C)cc2)c(C)c(C)c1O | 27.3 | – |
| Cc1nc(N2CCCCC2)c(C)c(C)c1O | 47.9 | – |
| Cc1nc(Nc2cccc(Br)c2)c(C)c(C)c1O | 20.5 | – |
| Cc1nc(Nc2ccc([N+](=O)[O-])cc2)c(C)c(C)c1O | 39 | – |
| Cc1nc(N2CCCC2)c(C)c(C)c1O | 36.7 | – |
| Cc1nc(Nc2ccc(F)cc2)c(C)c(C)c1O | 71.5 | – |

| SMILES | inhibition at 1 µM [1] [%] | also measured |
| --- | --- | --- |
| Cc1nc(Nc2cccc([N+](=O)[O-])c2)c(C)c(C)c1O | 18.5 | – |
| Cc1nc(N2CCC(C(O)(c3ccccc3)c3ccccc3)CC2)c(C)c(C)c1O | -7 | – |
| Cc1nc(Nc2ccc(Cl)cc2)c(C)c(C)c1O | 28.4 | – |
| Cc1nc(N2CCN(C)CC2)c(C)c(C)c1O | 47.6 | – |
| Cc1nc(N(c2ccccc2)c2ccccc2)c(C)c(C)c1O | 41.3 | – |
| Cc1nc(NC2CCCC2)c(C)c(C)c1O | 73.3 | – |
| Cc1nc(N)c(C)c(C)c1O | 22.9 | – |
| Cc1nc(Nc2cccc(Cl)c2)c(C)c(C)c1O | 42.5 | – |
| Cc1cccc(N(C)c2nc(C)c(O)c(C)c2C)c1 | 63.2 | – |
| Cc1nc(-n2cccc2)c(C)c(C)c1O | 56.1 | – |
| CCCc1ccc(Nc2nc(C)c(O)c(C)c2C)cc1 | 77.9 | inhibition in vivo at 1 mg/kg/day (Rattus norvegicus [5]): 79.9%; Activity (Rattus norvegicus [6]): 47.2%; Activity (Rattus norvegicus [7]): Dose-dependent effect; Activity (Rattus norvegicus [8]): 56.6%; Activity (Rattus norvegicus [9]): 88.6%; Ratio (Rattus norvegicus [10]): >300; inhibition in vivo at 10 mg/kg/day (Rattus norvegicus [11]): 96.3%; Activity (Rattus norvegicus [12]): 58.3%; Ratio (Rattus norvegicus [13]): >300; IC50 [14]: 0.00019 mM; Activity (Rattus norvegicus [15]): Dose-dependent effect; Activity (Rattus norvegicus [16]): Dose-dependent effect; Activity (Rattus norvegicus [17]): 72.6%; Activity (Rattus norvegicus [18]): 69.9%; inhibition in vivo at 0.1 mg/kg/day (Rattus norvegicus [19]): 55.4%; Ratio (Rattus norvegicus [20]): >300 |
| Cc1nc(Nc2ccc3c(c2)OCO3)c(C)c(C)c1O | 26.5 | – |
| COc1ccc(Nc2nc(C)c(O)c(C)c2C)cc1 | 14 | – |
| Cc1cccc(Nc2nc(C)c(O)c(C)c2C)c1 | 74 | – |
| Cc1ccc(N(C)c2nc(C)c(O)c(C)c2C)cc1 | 67.4 | – |
| Nc1ccc(O)c(C(=O)O)c1 [MESALAMINE] | 3.8 | IC50 [14]: 18.1 mM; inhibition at 20000 µM [21]: 52.7% |
| Cc1nc(Nc2ccccc2)c(C)c(C)c1O | 73.6 | – |
| Cc1nc(Nc2ccc(Oc3ccccc3)cc2)c(C)c(C)c1O | 17.3 | – |
| CCCCCCCCCCCCCCCCNc1nc(C)c(O)c(C)c1C | 26.9 | – |
| Cc1nc(N2CCOCC2)c(C)c(C)c1O | 67.7 | – |
| Nc1cccc2c1CN(C1CCC(=O)NC1=O)C2=O (stereo not given) [LENALIDOMIDE] | 64.6 | – |
| Cc1nc(N(c2ccccc2)c2ccc3ccccc3c2)c(C)c(C)c1O | 13.4 | – |
